Assay results reported in patent US20110190333A1, “DIHYDROTETRABENANZINE FOR THE TREATMENT OF ANXIETY” (Biovail Laboratories International (Barbados) S.R.L., priority 2008, published 2011).

How the values were obtained:
[1] = test system: female hooded-Lister rats; experiment: Elevated plus maze, Study 1; format: in vivo, rat
Excerpt: (§1) The elevated plus maze has been widely used as a test for anxiety, as it avoids confounding effects on consummatory responses or sensitivity to shock and it has a certain level of ethological relevance (see Rodgers R J, Cole J C (1994) The elevated plus maze. Pharmacological methods and ethology. In: Cooper, S J, Hendrie C A (eds) Ethology and Psychopharmacology. J. Wiley & Sons Ltd, pp 9-941994).
(§2) The maze consists of opposite pairs of open and closed arms, and the proportion of exploration carried out on the open arms is taken to be a measure of anxiety. Thus the percentage of open arm entries is increased by known anxiolytic agents and reduced by anxiogenic compounds (Pellow, S, Chopin P, File S E, Briley, M (1985) Validation of open: closed arm entries in an elevated plus maze as a measure of anxiety in the rat. J. Neurosci. Meth. 14: 149-167). In addition, the plus maze may be used to examine the behavioural response to stress, as exposure induces the release of corticosterone File, S E, Pellow, S (1987) Behavioural pharmacology of minor tranquillisers. J. Pharmacol. Exp. Ther. 35: 265-290). The elevated plus maze is based on an approach conflict model and has been validated as a model of anxiety in the rat (Tomkins D M (1990) The behavioural effects of anxiogenic agents in rodents. PhD thesis. Postgraduate studies in Pharmacology. University of Bradford).
(§3) Two studies were carried out using the elevated plus maze method and the aim of the studies was to assess the ability of a Isomer A for its ability to produce an anxiolytic effect in female hooded-Lister rats.
(§4) A total of 90 female hooded-Lister rats were used as subjects for study 1. Female hooded-Lister rats (Harlan, UK) were obtained as adults and weighed approximately 200-220 g at the start of the study. Subjects were housed in routinely used home cages in groups of 5 per cage. Home cages measured 59×35×24 cm. Rats were maintained under standard laboratory conditions on a 12:12 hour light/dark cycle (lights on at 08:00 h). Experimental procedures were performed in the light phase. Laboratory rooms were temperature controlled at 21±2° C. and humidity remained at 40-50% throughout the study. Rats were tested in the naïve state i.e. they had no exposure to the plus maze prior to testing, although they were handled and received sham injections prior to testing.
Isomer A (1.0-30.0 mg/kg) and chlordiazepoxide (1.0-5.0 mg/kg) were tested. Isomer A was dissolved in water and administered via the oral route 30 minutes prior to testing. Chlordiazepoxide (CDP) was dissolved in saline and administered via the intraperitoneal route 30 min prior to testing.
(§5) The maze consisted of a +shaped maze, made of Perspex, with two open arms (30×5 cm) and two closed arms (30×5 cm). The maze was arranged so that like arms are opposing. The closed arms were surrounded by matt black walls on all sides (10 cm in height). The maze was elevated to a height of 50 cm, and the surface was covered with a removable rubber matting. The behaviour of drug or vehicle-treated rats was monitored by means of a video camera attached to a TV monitor and video recorder. The rat was placed in the centre square and behaviour monitored over a 10 min test period. […] The maze was cleaned between tests and rats were placed on the maze in a randomised manner in order to minimise the effects of familiar cage mate odours.
(§6) Behaviour was recorded and the following parameters were analysed from the video tapes using the Hindsight® program for ethological analysis of behaviour: time spent on, and entries into, the open and closed arms, time spent in the centre square and rearing on the open and closed arms.
(§7) Elevated plus maze data were analysed by a one way ANOVA, followed by Dunnett's t test to assess drug effects on number of entries into the open and closed arms, length of time spent, and number of rears in, open and closed arms, and time spent in the centre square compared with vehicle.

[2] = test system: female hooded-Lister rats; experiment: Elevated plus maze, Study 2; format: in vivo, rat
Excerpt: as §1, §2, §3
as §4, with “60” for “90”, “B.” for “1.”, “(Charles River,” for “(Harlan,”, “220-250” for “200-220”
Isomer A (0.1-2.5 mg/kg) and chlordiazepoxide (2.5 mg/kg) were tested. Isomer A was dissolved in water and administered via the oral route (p.o.) 30 minutes prior to testing. Chlordiazepoxide (CDP) was dissolved in saline and administered via the intraperitoneal route (i.p.) 30 min prior to testing.
as §5, §6, §7

[3] = CDP 1.0-5.0 mg/kg i.p., 10 min trial, ANOVA
[4] = Isomer A 1.0-10 mg/kg p.o., 10 min trial, ANOVA
[5] = Isomer A 1.0-10 mg/kg p.o., 10 minute trial, ANOVA
[6] = Isomer A 1.0-10 mg/kg p.o., 10 minute trial, overall ANOVA
[7] = CDP 2.5 mg/kg i.p. and Isomer A 0.1-2.5 mg/kg p.o., 10 min trial, overall ANOVA

## CNC1=Nc2ccc(Cl)cc2C(c2ccccc2)=[N+]([O-])C1 [CDP, chlordiazepoxide, reference compound]
[1]; [3]
  number of rears: no significant effect
  time spent on the closed arms: no significant effect
[1]; CDP 1.0-5.0 mg/kg i.p., 10 minute trial, ANOVA
  total closed arm entries: no significant effect

## COc1cc2c(cc1OC)[C@@H]1C[C@@H](O)[C@H](CC(C)C)CN1CC2 (single isomer, unassigned) [Isomer A]
[1]; Isomer A 1 mg/kg p.o., 10 minute trial
  total open arm entries: trend towards an increase
[1]; Isomer A 1 mg/kg p.o., Study 1
  magnitude of the increase in time spent on the open arms relative to CDP at 2.5 mg/kg: comparable
[1]; Isomer A 1 mg/kg p.o., post-hoc vs vehicle (p<0.05)
  time spent on the open arms: significant increase
[1]; Isomer A 30 mg/kg p.o., animals remained stationary for much of the 10 minute test, behaviour not scored
  overall activity levels on the elevated plus maze: markedly reduced
[1]; [4]
  time spent in the centre square: no significant effect
  time spent on the closed arms: no significant effect
[1]; [5]
  number of rears: no significant effect
  total closed arm entries: no significant effect
[1]; [6]
  time spent on the open arms: overall significant effect
  total open arm entries: significant effect
[1]; Isomer A, Study 1, some measures of behaviour
  anxiolytic effect on the elevated plus maze: some anxiolytic potential
[1]; Isomer A, most marked at 1.0 mg/kg p.o., failed to reach statistical significance
  time spent on the closed arms: trend towards a reduction
[2]; [7]
  number of rears: no overall significant effect
  time spent in the centre square: no overall significant effect
  time spent on the closed arms: overall significant effect
  time spent on the open arms: overall significant effect
  total closed arm entries: no overall significant effect
  total open arm entries: no overall significant effect
[2]; Isomer A 0.1 mg/kg p.o., effect failed to achieve statistical significance
  time in the centre square: reduced
[2]; Isomer A 1.0 mg/kg p.o., post-hoc vs vehicle (p<0.05)
  time spent on the closed arms: significant reduction
[2]; Isomer A 0.1-2.5 mg/kg p.o., Study 2
  magnitude of the increase in time spent on the open arms relative to CDP at 2.5 mg/kg: comparable
[2]; Isomer A, all doses 0.1-2.5 mg/kg p.o., post-hoc vs vehicle (p<0.05-p<0.001)
  time spent on the open arms: significant increase
[2]; Isomer A, all doses tested 0.1-2.5 mg/kg p.o., Study 2, certain measures of behaviour
  anxiolytic effect on the elevated plus maze: anxiolytic potential
